# Data taken from patent US20160101109A1, “METHOD OF TREATING ARTHRITIS” (AbbVie Inc., priority 2007, published 2016).
# “Also recorded” adds a separate entry of the source.
# How the values were obtained:
# activated B lymphocytes = assay: lipopolysaccharide stimulation, mouse lymphocyte in vitro activation; assay type: cell-based
# [1] = test system: KLH antigen-specific T cells; assay: KLH immunization of mice, ex vivo restimulation of T cells; assay type: in vivo, mouse
# Excerpt: Mice were immunized with keyhole limpet hemocyanin (KLH) and treated with EXAMPLE A or vehicle control.
# activated T lymphocytes = assay: mixed-lymphocyte reaction (MLR), mouse lymphocyte in vitro activation; assay type: cell-based
# [2] = test system: DBA/1J (H-2q) mice immunized with collagen; assay: mouse model of arthritis (collagen immunization, zymosan boost); assay type: in vivo; conditions: EXAMPLE A 50 mg/kg per day, dexamethasone 1 mg/kg per day, 3 weeks, p<0.5 versus vehicle control
# Procedure: Also, a standard mouse model of arthritis using DBA/1J (H-2q) mice immunized with collagen and boosted with zymosan 21 days later was used to induce disease. The mice were than treated with EXAMPLE A (50 mg/kg per day), vehicle (with no drug) and dexamethasone (1 mg/kg per day) at the first clinical sign of disease. The mice were then evaluated for mean arthritic score (MAS) and paw swelling for 3 weeks after treatment began.
# mouse ankles = assay: total bone volume by microcomputed tomography (μCT) of mouse ankles; assay type: in vivo; conditions: 1.8-mm section of ankle, resolution 18 μm, FIG. 3
# Procedure: Still also, total bone volumes were measured by microcomputed tomography (μCT) for a 1.8-mm tall section of mouse ankles from the base of the tibia to the tarsal/metatarsal joints at a resolution of 18 μm.
smiles,measurement,setting,value
"CN(C)CC[C@H](CSc1ccccc1)Nc1ccc(S(=O)(=O)NC(=O)c2ccc(N3CCN(Cc4ccccc4-c4ccc(Cl)cc4)CC3)cc2)cc1[N+](=O)[O-] [EXAMPLE A, N-(4-(4-((4′-chloro(1,1′-biphenyl)-2-yl)methyl)piperazin-1-yl)benzoyl)-4-(((1R)-3-(dimethylamino)-1-((phenylsulfanyl)methyl)propyl)amino)-3-nitrobenzenesulfonamide]",proliferation of activated B lymphocytes upon lipopolysaccharide stimulation,activated B lymphocytes,inhibited in a concentration-dependent manner
same,responsiveness of T cells spared after treatment,[1]; concavalin A stimulation,responsive to concavalin A
same,proliferation of KLH antigen-specific T cells on restimulation ex vivo,"[1]; mice immunized with KLH and treated, versus vehicle control",significant inhibition of proliferation
same,proliferation of activated T lymphocytes in a mixed-lymphocyte reaction (MLR),activated T lymphocytes,inhibited in a concentration-dependent manner
same,paw swelling,[2]; FIG. 1,inhibition of arthritis; also recorded: reduction in mouse paw swelling
same,arthritis as assessed by MAS (mean arthritic score),[2]; FIG. 2,inhibition of arthritis
same,mouse bone volume,mouse ankles,increase in mouse bone volume
